The subject of the assay is 3T3L1 (mouse preadipocytes), differentiated to mature adipocytes; adiponectin secretion. Briefly: Adiponectin assay: adiponectin secretion from differentiated 3T3L1 adipocytes, ELISA of supernatants. The assay is classed as cell-based. To be noted: for % of adiponectin (control cells taken as hundred): 48 hrs. How it is done:
Adiponectin Assay Protocol • 3T3L1 (mouse preadipocytes) were plated on a 96 well plate at a density of 3*10^3 cells per well; • After 5 days of post confluency (a condition where the cells form a uniform layer) the cells were differentiated (a process where premature adipocytes are transformed to mature adipocytes) in differentiation medium for 10 days; • On the 11th day the matured adipocytes were treated with non cytotoxic concentrations (concentrations stated below) of the inula racemosa extract and theanine; • The cells were incubated for 48 hrs and supernatants were collected and stored. They were analysed to detect level of Adiponectin by ELISA; • The efficacy of the test ingredient was evaluated with respect to the untreated control (media control); • If any of the tested combinations of inula racemosa extract and theanine on increased adiponectin level was larger in a statistically significant way than the additive effect or individual components, then the particular combination is considered to be synergistic. To investigate the efficacy of inula racemosa and theanine in increasing adiponectin secretion from 3T3L1, the cells were treated with varying concentrations of inula racemosa (as obtained set out herein in the Materials section) and theanine in cell culture medium. The % of adiponectin from control cells were taken as hundred, upon which the treatment values were calculated. […] A range of combination varying amounts of inula racemosa extract and theanine were investigated on its joint ability for adiponectin secretion. The combinations used were (weight ratio's theanine:inula racemosa extract): 100:1 ([…]), 100:10,000 (H). This was achieved via dissolution of the components in aqueous stock solutions.
(ELISA stands for enzyme-linked immunosorbent assay.)

With `CCNC(=O)CCC(N)C(=O)O` (stereo not shown) [Theanine, 2-Amino-4-(ethylcarbamoyl)butyric acid], the “% of adiponectin (control cells taken as hundred)” value is, setting by setting: (0.00001% wt of inula r. extract or theanine in cell culture medium) 106.7 +/− 7.4%; (0.00002% wt of inula r. extract or theanine in cell culture medium) 107.0 +/− 7.0%; (0.00005% wt of inula r. extract or theanine in cell culture medium) 136.7 +/− 7.3%; (0.0001% wt of inula r. extract or theanine in cell culture medium) 141.7 +/− 1.6%; (0.0005% wt of inula r. extract or theanine in cell culture medium) 145.8 +/− 8.2%; (0.001% wt of inula r. extract or theanine in cell culture medium) 156.0 +/− 8.5%. For the same compound, the “adiponectin levels, in-vitro, separately” value (varying concentrations, 3T3L1 cells) was “increased adiponectin levels”.

The values above are taken from patent US20150352164A1, “COMPOSITION COMPRISING THEANINE AND AN EXTRACT OF INULA RACEMOSA” (CONOPCO, INC., D/B/A UNILEVER, priority 2012, published 2015).
